Experiments:
ECHCO = assay: Postemergence foliar-applied greenhouse weed control, direct-seeded rice system; assay type: in vivo, Echinochloa colona (L.) Link
Text: (§1) Seeds or nutlets of the desired test plant species were planted in a soil matrix prepared by mixing a loam or sandy loam soil (e.g., 28.6 percent silt, 18.8 percent clay, and 52.6 percent sand, with a pH of about 5.8 and an organic matter content of about 1.8 percent) and calcareous grit in an 80 to 20 ratio. The soil matrix was contained in plastic pots with a volume of 1 quart and a surface area of 83.6 square centimeters (cm^2). When required to ensure good germination and healthy plants, a fungicide treatment and/or other chemical or physical treatment was applied. The plants were grown for 8-22 days in a greenhouse with an approximate 14 h photoperiod which was maintained at about 29° C. during the day and 26° C. during the night. Nutrients (Peters Excel® 15-5-15 5-Ca 2-Mg and iron chelate) were applied in the irrigation solution as needed and water was added on a regular basis. Supplemental lighting was provided with overhead metal halide 1000-Watt lamps as necessary. The plants were employed for testing when they reached the first through fourth true leaf stage.
(§2) Treatments consisted of the acid or esters of 4-amino-3-chloro-5-fluoro-6-(4-chloro-2-fluoro-3-methoxy-phenyl)pyridine-2-carboxylic acid (Compound A), each formulated as an SC (suspension concentrate), and various herbicidal components alone and in combination. Forms of compound A were applied on an acid equivalent basis.
(§3) Other herbicidal components were applied on an active ingredient basis and included diamuron formulated as an EC (emulsifiable concentrate) and oxaziclomefone (technical grade material).
(§4) Treatment requirements were calculated based upon the rates being tested, the concentration of active ingredient or acid equivalent in the formulation, and a 12 mL application volume at a rate of 187 L/ha.
(§5) For treatments comprised of formulated compounds, measured amounts of compounds were placed individually in 25 mL glass vials and diluted in a volume of 1.25% (v/v) Agri-Dex® crop oil concentrated to obtain 12× stock solutions. […] Application solutions were prepared by adding an appropriate amount of each stock solution (e.g., 1 mL) and diluted to the appropriate final concentrations with the addition of 10 mL of an aqueous mixture of 1.25% (v/v) crop oil concentrate so that the final spray solutions contained 1.25+/−0.05% (v/v) crop oil concentrate.
(§6) For treatments comprised of technical compounds, weighed amounts can be placed individually in 25 mL glass vials and dissolved in a volume of 97:3 v/v acetone/DMSO to obtain 12× stock solutions. […] Application solutions can be prepared by adding an appropriate amount of each stock solution (e.g., 1 mL) and diluted to the appropriate final concentrations with the addition of 10 mL of an aqueous mixture of 1.5% (v/v) crop oil concentrate so that the final spray solutions contain 1.25% (v/v) crop oil concentrate. When technical materials are used, the concentrated stock solutions can be added to the spray solutions so that the final acetone and DMSO concentrations of the application solutions are 16.2% and 0.5%, respectively.
(§7) For treatments comprised of formulated and technical compounds, weighed amounts of the technical materials were placed individually in 25 mL glass vials and dissolved in a volume of 97:3 v/v acetone/DMSO to obtain 12× stock solutions, and measured amounts of the formulated compounds were placed individually in 25 mL glass vials and diluted in a volume of 1.5% (v/v) crop oil concentrate or water to obtain 12× stock solutions. […] Application solutions were prepared by adding an appropriate amount of each stock solution (e.g., 1 mL) and diluted to the appropriate final concentrations with the addition of an appropriate amount of an aqueous mixture of 1.5% (v/v) crop oil concentrate so that the final spray solutions contained 1.25% (v/v) crop oil concentrate. […]

IPOHE = assay: as above; assay type: in vivo, Ipomoea hederacea Jacq.
Text: as §1, §2, §3, §4, §5, §6, §7

ECHOR = assay: In-water applied greenhouse weed control, transplanted paddy rice system; assay type: in vivo, Echinochloa oryzoides (Ard.) Fritsch; details: in-water application
Method: (§8) Weed seeds or nutlets of the desired test plant species were planted in puddled soil (mud) prepared by mixing a shredded, non-sterilized mineral soil (50.5 percent silt, 25.5 percent clay, and 24 percent sand, with a pH of about 7.6 and an organic matter content of about 2.9 percent) and water at a 1:1 volumetric ratio. The prepared mud was dispensed in 365 mL aliquots into 16-ounce (oz.) non-perforated plastic pots with a surface area of 86.59 square centimeters (cm^2) leaving a headspace of 3 centimeters (cm) in each pot. Mud was allowed to dry overnight prior to planting or transplanting. Rice seeds were planted in Sun Gro MetroMix® 306 planting mixture, which typically has a pH of 6.0 to 6.8 and an organic matter content of about 30 percent, in plastic plug trays. Seedlings at the second or third leaf stage of growth were transplanted into 840 mL of mud contained in 32-oz. non-perforated plastic pots with a surface area of 86.59 cm^2 4 days prior to herbicide application. The paddy was created by filling the headspace of the pots with 2.5 to 3 cm of water. When required to ensure good germination and healthy plants, a fungicide treatment and/or other chemical or physical treatment was applied. The plants were grown for 4-22 days in a greenhouse with an approximate 14 h photoperiod which was maintained at about 29° C. during the day and 26° C. during the night. Nutrients were added as Osmocote® (19:6:12, N:P:K+ minor nutrients) at 2 g per 16-oz. pot and 4 g per 32-oz. pot. Water was added on a regular basis to maintain the paddy flood, and supplemental lighting was provided with overhead metal halide 1000-Watt lamps as necessary. The plants were employed for testing when they reached the first through fourth true leaf stage.
(§9) Treatments consisted of the acid or esters of 4-amino-3-chloro-5-fluoro-6-(4-chloro-2-fluoro-3-methoxy-phenyl)pyridine-2-carboxylic acid (compound A) each formulated as an SC and various herbicidal components alone and in combination. Forms of compound A were applied on an acid equivalent basis.
(§10) Other herbicidal components were applied on an active ingredient basis and included daimuron formulated as an EC, bromobutide (technical grade material), and oxaziclomefone (technical grade material).
(§11) Treatment requirements for each compound or herbicidal component were calculated based upon the rates being tested, the concentration of active ingredient or acid equivalent in the formulation, an application volume of 2 mL per component per pot, and an application area of 86.59 cm^2 per pot.
(§12) For formulated compounds, a measured amount was placed in an individual 100 or 200 mL glass vial and was dissolved in a volume of 1.25% (v/v) Agri-Dex® crop oil concentrate to obtain application solutions.
(§13) For technical grade compounds, a weighed amount was placed in an individual 100 to 200 mL glass vial and was dissolved in a volume of acetone to obtain concentrated stock solutions. […] The concentrated stock solutions obtained were diluted with an equivalent volume of an aqueous mixture containing 2.5% (v/v) crop oil concentrate so that the final application solutions contained 1.25% (v/v) crop oil concentrate.
(§14) Applications were made by injecting, with a pipetter, appropriate amounts of the application solutions, individually and sequentially, into the aqueous layer of the paddy. Control plants were treated in the same manner with the solvent blank. Applications were made so that all treated plant material received the same concentrations of acetone and crop oil concentrate.
(§15) The treated plants and control plants were placed in a greenhouse as described above and water was added as needed to maintain a paddy flood. After approximately 3 weeks the condition of the test plants as compared with that of the untreated plants was determined visually and scored on a scale of 0 to 100 percent where 0 corresponds to no injury or growth inhibition and 100 corresponds to complete kill. […]

FIMMI = assay: as above; assay type: in vivo, Fimbristylis miliacea (L.) Vahl; details: in-water application
Method: as §8, §9, §10, §11, §12, §13, §14, §15

ECHCG = assay: Postemergence foliar-applied greenhouse weed control, direct-seeded rice system; assay type: in vivo, Echinochloa crusgalli (L.) Beauv.
Text: as §1, §2, §3, §4, §5, §6, §7

BRAPP = assay: as above; assay type: in vivo
Text: as §1, §2, §3, §4, §5, §6, §7

LEFCH = assay: as above; assay type: in vivo, Leptochloa chinensis (L.) Nees
Text: as §1, §2, §3, §4, §5, §6, §7

[1] = Daimuron 100 gai/ha alone (Table 2)
[2] = Daimuron 200 gai/ha alone (Table 2)
[3] = Daimuron 400 gai/ha alone (Table 2)

Cc1ccc(NC(=O)NC(C)(C)c2ccccc2)cc1 [Daimuron, N-(4-methylphenyl)-N′-(1-methyl-1-phenylethyl)urea]
Visual Weed Control (%) - 20 DAA ECHCO Obs (ECHCO; Daimuron 100 gai/ha alone): 0% | Visual Weed Control (%) - 20 DAA ECHCO Obs (ECHCO; [1]): 0% | Visual Weed Control (%) - 20 DAA ECHCO Obs (ECHCO; Daimuron 200 gai/ha alone): 10% | Visual Weed Control (%) - 20 DAA ECHCO Obs (ECHCO; [2]): 10% | Visual Weed Control (%) - 20 DAA ECHCO Obs (ECHCO; Daimuron 400 gai/ha alone): 10% | Visual Weed Control (%) - 20 DAA ECHCO Obs (ECHCO; [3]): 10% | Visual Weed Control (%) - 20 DAA IPOHE Obs (IPOHE; Daimuron 100 gai/ha alone): 0% | Visual Weed Control (%) - 20 DAA IPOHE Obs (IPOHE; [1]): 0% | Visual Weed Control (%) - 20 DAA IPOHE Obs (IPOHE; Daimuron 200 gai/ha alone): 10% | Visual Weed Control (%) - 21 DAA ECHOR Obs (ECHOR; Daimuron 200 gai/ha alone): 0% | Visual Weed Control (%) - 21 DAA ECHOR Obs (ECHOR; Daimuron 400 gai/ha alone): 15% | Visual Weed Control (%) - 20 DAA ECHOR Obs (ECHOR; Diamuron 400 gai/ha alone): 60% | Visual Weed Control (%) - 21 DAA FIMMI Obs (FIMMI; Daimuron 200 gai/ha alone): 10% | Visual Weed Control (%) - 21 DAA FIMMI Obs (FIMMI; Daimuron 400 gai/ha alone): 80% | Visual Weed Control (%) - 20 DAA ECHCG Obs (ECHCG; Daimuron 100 gai/ha alone): 0% | Visual Weed Control (%) - 20 DAA ECHCG Obs (ECHCG; [1]): 0% | Visual Weed Control (%) - 20 DAA ECHCG Obs (ECHCG; Daimuron 200 gai/ha alone): 0% | Visual Weed Control (%) - 20 DAA ECHCG Obs (ECHCG; [2]): 0% | Visual Weed Control (%) - 20 DAA ECHCG Obs (ECHCG; Daimuron 400 gai/ha alone): 0% | Visual Weed Control (%) - 20 DAA ECHCG Obs (ECHCG; [3]): 0% | Visual Weed Control (%) - 20 DAA BRAPP Obs (BRAPP; Daimuron 100 gai/ha alone): 0% | Visual Weed Control (%) - 20 DAA BRAPP Obs (BRAPP; [1]): 0% | Visual Weed Control (%) - 20 DAA BRAPP Obs (BRAPP; Daimuron 200 gai/ha alone): 0% | Visual Weed Control (%) - 20 DAA BRAPP Obs (BRAPP; [2]): 0% | Visual Weed Control (%) - 20 DAA BRAPP Obs (BRAPP; Daimuron 400 gai/ha alone): 0% | Visual Weed Control (%) - 20 DAA BRAPP Obs (BRAPP; [3]): 0% | Visual Weed Control (%) - 20 DAA LEFCH Obs (LEFCH; Daimuron 100 gai/ha alone): 0% | Visual Weed Control (%) - 20 DAA LEFCH Obs (LEFCH; Daimuron 200 gai/ha alone): 0% | Visual Weed Control (%) - 20 DAA LEFCH Obs (LEFCH; [2]): 0% | Visual Weed Control (%) - 20 DAA LEFCH Obs (LEFCH; Daimuron 400 gai/ha alone): 0% | Visual Weed Control (%) - 20 DAA LEFCH Obs (LEFCH; [3]): 0%
